From article PMC5218480 (PLoS ONE, 2017)

System: MV-4-11 cells
Test: Gene expression microarray analysis (Affymetrix PrimeView) and GSEA
Type: cell-based, human
Design: RFU PODN (11730768_x_at) / Fold change /veh PODN (11730768_x_at) / RFU LINC00158 (11744669_a_at) / Fold change /veh LINC00158 (11744669_a_at) / RFU DUSP10 (11751237_a_at) / Fold change /veh DUSP10 (11751237_a_at) / RFU ID3 (11757404_x_at) / Fold change /veh ID3 (11757404_x_at) / RFU PLEKHG5 (11737974_s_at) / Fold change /veh PLEKHG5 (11737974_s_at) / RFU LRRC4B (11730491_at) / Fold change /veh LRRC4B (11730491_at) / RFU GIMAP4 (11747438_a_at) / Fold change /veh GIMAP4 (11747438_a_at) / RFU KRT8 (11758183_x_at) / Fold change /veh KRT8 (11758183_x_at) / RFU CNN1 (11734310_a_at) / Fold change /veh CNN1 (11734310_a_at) / RFU VPS37D (11726825_at) / Fold change /veh VPS37D (11726825_at) / RFU C10orf10 (11716522_x_at) / Fold change /veh C10orf10 (11716522_x_at) / RFU KIR2DL2 /// KIR2DL4 /// KIR2DL5A /// KIR2DL5B /// KIR2DS1 /// KIR2DS2 /// KIR2DS3 /// KIR2DS4 /// KIR3DL3 /// KIR3DL3 /// KIR3DS1 (11738374_at) / Fold change /veh KIR2DL2 /// KIR2DL4 /// KIR2DL5A /// KIR2DL5B /// KIR2DS1 /// KIR2DS2 /// KIR2DS3 /// KIR2DS4 /// KIR3DL3 /// KIR3DL3 /// KIR3DS1 (11738374_at) / RFU C1QL1 (11718748_at) / Fold change /veh C1QL1 (11718748_at) / RFU TMPRSS4 (11747572_a_at) / Fold change /veh TMPRSS4 (11747572_a_at) / RFU HAMP (11756126_x_at) / Fold change /veh HAMP (11756126_x_at) / RFU RNFT2 (11725882_a_at) / Fold change /veh RNFT2 (11725882_a_at) / RFU NR4A2 (11747474_a_at) / Fold change /veh NR4A2 (11747474_a_at) / RFU ABCC12 (11746883_a_at) / Fold change /veh ABCC12 (11746883_a_at) / RFU TMEM136 (11760407_x_at) / Fold change /veh TMEM136 (11760407_x_at) / RFU CLDN22 /// WWC2 (11732394_at) / Fold change /veh CLDN22 /// WWC2 (11732394_at) / RFU HLA-DPB1 (11760878_x_at) / Fold change /veh HLA-DPB1 (11760878_x_at) / RFU SPINT1 (11716480_a_at) / Fold change /veh SPINT1 (11716480_a_at) / RFU GAP43 (11754022_s_at) / Fold change /veh GAP43 (11754022_s_at) / RFU A4GNT (11735810_at) / Fold change /veh A4GNT (11735810_at) / RFU PRB3 (11715151_x_at) / Fold change /veh PRB3 (11715151_x_at) / RFU TUBB4B (11761932_at) / Fold change /veh TUBB4B (11761932_at) / RFU CAPN14 (11732068_a_at) / Fold change /veh CAPN14 (11732068_a_at) / RFU TMCC2 (11721928_a_at) / Fold change /veh TMCC2 (11721928_a_at) / RFU IRGQ (11745062_a_at) / Fold change /veh IRGQ (11745062_a_at) / RFU FAM174B (11720279_a_at) / Fold change /veh FAM174B (11720279_a_at) / RFU TMPRSS4 (11748680_a_at) / Fold change /veh TMPRSS4 (11748680_a_at) / RFU FAM212B (11763350_a_at) / Fold change /veh FAM212B (11763350_a_at) / RFU PLEKHG5 (11743358_a_at) / Fold change /veh PLEKHG5 (11743358_a_at) / RFU ZSCAN30 (11745921_a_at) / Fold change /veh ZSCAN30 (11745921_a_at) / RFU CMKLR1 (11741424_a_at) / Fold change /veh CMKLR1 (11741424_a_at) / RFU LOC101060620 /// MAPK8IP1 (11723275_at) / Fold change /veh LOC101060620 /// MAPK8IP1 (11723275_at) / RFU SPTSSB (11747773_x_at) / Fold change /veh SPTSSB (11747773_x_at) / RFU PRSS12 (11739890_at) / Fold change /veh PRSS12 (11739890_at) / RFU BIN1 (11741810_x_at) / Fold change /veh BIN1 (11741810_x_at) / RFU WNT11 (11732464_a_at) / Fold change /veh WNT11 (11732464_a_at) / RFU C10orf10 (11716521_a_at) / Fold change /veh C10orf10 (11716521_a_at) / RFU C5orf56 (11738089_at) / Fold change /veh C5orf56 (11738089_at) / RFU CYB561 (11721691_x_at) / Fold change /veh CYB561 (11721691_x_at) / RFU ANKRD19P (11752326_a_at) / Fold change /veh ANKRD19P (11752326_a_at) / RFU OR2T12 /// OR2T33 /// OR2T8 (11738714_s_at) / Fold change /veh OR2T12 /// OR2T33 /// OR2T8 (11738714_s_at) / RFU VCAN (11748164_a_at) / Fold change /veh VCAN (11748164_a_at) / RFU JSRP1 (11732532_at) / Fold change /veh JSRP1 (11732532_at) / RFU KRTAP10-11 (11738290_x_at) / Fold change /veh KRTAP10-11 (11738290_x_at) / RFU MYO3A (11730013_a_at) / Fold change /veh MYO3A (11730013_a_at) / RFU EBF3 (11725865_a_at) / Fold change /veh EBF3 (11725865_a_at) / RFU CAMK2N1 (11719241_x_at) / Fold change /veh CAMK2N1 (11719241_x_at) / RFU C5orf56 (11738088_a_at) / Fold change /veh C5orf56 (11738088_a_at) / RFU OLFML3 (11715873_a_at) / Fold change /veh OLFML3 (11715873_a_at) / RFU LOC100653217 /// NTM (11731650_a_at) / Fold change /veh LOC100653217 /// NTM (11731650_a_at) / RFU MAPK11 (11762145_a_at) / Fold change /veh MAPK11 (11762145_a_at) / RFU FIZ1 (11724087_x_at) / Fold change /veh FIZ1 (11724087_x_at) / RFU OASL (11726364_x_at) / Fold change /veh OASL (11726364_x_at) / RFU SOX15 (11748057_x_at) / Fold change /veh SOX15 (11748057_x_at) / RFU CD79A (11719716_a_at) / Fold change /veh CD79A (11719716_a_at) / RFU HIST1H1D (11736915_at) / Fold change /veh HIST1H1D (11736915_at) / RFU CASKIN2 (11723855_a_at) / Fold change /veh CASKIN2 (11723855_a_at) / RFU LOC730098 (11760151_x_at) / Fold change /veh LOC730098 (11760151_x_at) / RFU OR4N2 (11742367_at) / Fold change /veh OR4N2 (11742367_at) / RFU PRRT2 (11749266_a_at) / Fold change /veh PRRT2 (11749266_a_at) / RFU SNX32 (11753110_a_at) / Fold change /veh SNX32 (11753110_a_at) / RFU CDHR5 (11726645_a_at) / Fold change /veh CDHR5 (11726645_a_at) / RFU RCAN1 (11760418_a_at) / Fold change /veh RCAN1 (11760418_a_at) / RFU FAM167A (11723789_a_at) / Fold change /veh FAM167A (11723789_a_at) / RFU FAM26E (11764081_at) / Fold change /veh FAM26E (11764081_at) / RFU ISYNA1 (11749810_s_at) / Fold change /veh ISYNA1 (11749810_s_at) / RFU ACY1 (11761880_at) / Fold change /veh ACY1 (11761880_at) / RFU 11764098_at / Fold change /veh 11764098_at / RFU SAMD14 (11745864_x_at) / Fold change /veh SAMD14 (11745864_x_at) / RFU NPB (11741838_a_at) / Fold change /veh NPB (11741838_a_at) / RFU TMPRSS6 (11731388_a_at) / Fold change /veh TMPRSS6 (11731388_a_at) / RFU KRTAP10-2 (11738614_at) / Fold change /veh KRTAP10-2 (11738614_at) / RFU ARHGAP8 /// PRR5-ARHGAP8 (11727945_x_at) / Fold change /veh ARHGAP8 /// PRR5-ARHGAP8 (11727945_x_at) / RFU KRTAP5-7 /// NADSYN1 (11734609_at) / Fold change /veh KRTAP5-7 /// NADSYN1 (11734609_at) / RFU RASL12 (11751679_a_at) / Fold change /veh RASL12 (11751679_a_at) / RFU CDKN2B (11736163_a_at) / Fold change /veh CDKN2B (11736163_a_at) / RFU PRF1 (11729649_at) / Fold change /veh PRF1 (11729649_at) / RFU, ZNF638 /// ZNF638-IT1 / Fold change vs veh, ZNF638 /// ZNF638-IT1 / RFU, PANK3 / Fold change vs veh, PANK3 / RFU, SH3YL1 / Fold change vs veh, SH3YL1 / RFU, ZEB2 / Fold change vs veh, ZEB2 / RFU, NRIP1 / Fold change vs veh, NRIP1 / RFU, PTTG1IP / Fold change vs veh, PTTG1IP / RFU, CAPN2 / Fold change vs veh, CAPN2 / RFU, MED14 / Fold change vs veh, MED14 / RFU, SNORA58 / Fold change vs veh, SNORA58 / RFU, C1orf63 / Fold change vs veh, C1orf63 / RFU, LRRFIP1 / Fold change vs veh, LRRFIP1 / RFU, NDUFAF7 / Fold change vs veh, NDUFAF7 / RFU, SLC12A2 / Fold change vs veh, SLC12A2 / RFU, IBTK / Fold change vs veh, IBTK / RFU, ESF1 / Fold change vs veh, ESF1 / Fold change vs veh, TMEM50B / RFU, TAOK1 / Fold change vs veh, TAOK1 / RFU, ACBD3 / Fold change vs veh, ACBD3 / RFU, TMA16 / Fold change vs veh, TMA16 / RFU, RWDD3 / Fold change vs veh, RWDD3 / RFU, BCAT1 / Fold change vs veh, BCAT1 / RFU, EDEM3 / Fold change vs veh, EDEM3 / RFU, TMEM33 / Fold change vs veh, TMEM33 / RFU, WDR75 / Fold change vs veh, WDR75 / RFU, AHCTF1 / Fold change vs veh, AHCTF1 / RFU, TFRC / Fold change vs veh, TFRC / RFU, ZDHHC17 / Fold change vs veh, ZDHHC17 / RFU, NOM1 / Fold change vs veh, NOM1 / RFU, ARL8B / Fold change vs veh, ARL8B / RFU, ZBTB11 / Fold change vs veh, ZBTB11 / RFU, TAMM41 / Fold change vs veh, TAMM41 / RFU, KIAA1704 /// LOC100996395 / Fold change vs veh, KIAA1704 /// LOC100996395 / RFU, ING1 / Fold change vs veh, ING1 / RFU, TRMT61B / Fold change vs veh, TRMT61B / RFU, FUBP3 / Fold change vs veh, FUBP3 / RFU, TP53 / Fold change vs veh, TP53 / RFU, TNKS2 / Fold change vs veh, TNKS2 / RFU, ZFP14 / Fold change vs veh, ZFP14 / RFU, ACTR2 / Fold change vs veh, ACTR2 / RFU, PPP3R1 / Fold change vs veh, PPP3R1 / RFU, PIK3R1 / Fold change vs veh, PIK3R1 / RFU, HNRNPA1 / Fold change vs veh, HNRNPA1 / RFU, RNF170 / Fold change vs veh, RNF170 / RFU, ZNF28 / Fold change vs veh, ZNF28 / RFU, RNGTT / Fold change vs veh, RNGTT / RFU, OGT / Fold change vs veh, OGT / RFU, BRD1 / Fold change vs veh, BRD1 / RFU, MARS / Fold change vs veh, MARS / RFU, ZNF655 / Fold change vs veh, ZNF655 / RFU, FAHD1 / Fold change vs veh, FAHD1 / RFU, BDP1 / Fold change vs veh, BDP1 / RFU, LRRCC1 / Fold change vs veh, LRRCC1 / RFU, ARID1A / Fold change vs veh, ARID1A / RFU, ZNF146 / Fold change vs veh, ZNF146 / RFU, ZNF330 / Fold change vs veh, ZNF330 / RFU, GPN3 / Fold change vs veh, GPN3 / RFU, C9orf123 / Fold change vs veh, C9orf123 / RFU, N4BP2L2 / Fold change vs veh, N4BP2L2 / RFU, ARFIP1 / Fold change vs veh, ARFIP1 / RFU, FAM179B / Fold change vs veh, FAM179B / RFU, BCL10 / Fold change vs veh, BCL10 / RFU, UHRF1BP1L / Fold change vs veh, UHRF1BP1L / RFU, BET1 / Fold change vs veh, BET1 / RFU, CNOT2 / Fold change vs veh, CNOT2 / RFU, ZNF268 / Fold change vs veh, ZNF268 / Fold change vs veh, ZNF507 / RFU, DGCR2 / Fold change vs veh, DGCR2 / RFU, WDSUB1 / Fold change vs veh, WDSUB1 / Fold change vs veh, HSP90B1 /// MIR3652 / RFU, ADSS / Fold change vs veh, ADSS / RFU, GK / Fold change vs veh, GK / RFU, ZNF148 / Fold change vs veh, ZNF148 / RFU, TAF9 / Fold change vs veh, TAF9 / RFU, SLC1A5 / Fold change vs veh, SLC1A5 / RFU, SLMO2 / Fold change vs veh, SLMO2 / RFU, ABCC4 / Fold change vs veh, ABCC4 / RFU, LOC101060439 /// RAP1B / Fold change vs veh, LOC101060439 /// RAP1B / RFU, RFX7 / Fold change vs veh, RFX7 / RFU, GTPBP10 / Fold change vs veh, GTPBP10 / RFU, CNEP1R1 / Fold change vs veh, CNEP1R1 / RFU, BIVM-ERCC5 /// ERCC5 / Fold change vs veh, BIVM-ERCC5 /// ERCC5 / RFU, ILF3 / Fold change vs veh, ILF3 / RFU 11762660_at / Fold change /veh 11762660_at / RFU VCAN (11757783_s_at) / Fold change /veh VCAN (11757783_s_at) / RFU DDX43 (11728927_at) / Fold change /veh DDX43 (11728927_at) / RFU KRT8 (11758188_x_at) / Fold change /veh KRT8 (11758188_x_at) / RFU NKD1 (11759106_at) / Fold change /veh NKD1 (11759106_at) / RFU SRD5A1 (11742802_a_at) / Fold change /veh SRD5A1 (11742802_a_at) / RFU TPSAB1 /// TPSB2 (11721975_s_at) / Fold change /veh TPSAB1 /// TPSB2 (11721975_s_at) / RFU GSTM3 (11746129_a_at) / Fold change /veh GSTM3 (11746129_a_at) / RFU IL23R (11737362_x_at) / Fold change /veh IL23R (11737362_x_at) / RFU TMEM51 (11727254_a_at) / Fold change /veh TMEM51 (11727254_a_at) / RFU PIWIL2 (11732686_x_at) / Fold change /veh PIWIL2 (11732686_x_at) / RFU ORM1 (11744905_x_at) / Fold change /veh ORM1 (11744905_x_at) / RFU CCDC152 (11743942_at) / Fold change /veh CCDC152 (11743942_at) / RFU ECM1 (11717891_a_at) / Fold change /veh ECM1 (11717891_a_at) / RFU IL23R (11748794_a_at) / Fold change /veh IL23R (11748794_a_at) / RFU TNFAIP8L3 (11732012_x_at) / Fold change /veh TNFAIP8L3 (11732012_x_at) / RFU MBOAT4 (11741988_at) / Fold change /veh MBOAT4 (11741988_at) / RFU 11764193_at / Fold change /veh 11764193_at / RFU TMEM53 (11763286_at) / Fold change /veh TMEM53 (11763286_at) / RFU MAGEB2 (11727129_at) / Fold change /veh MAGEB2 (11727129_at) / RFU TMEM200A (11744735_a_at) / Fold change /veh TMEM200A (11744735_a_at) / RFU CCDC152 (11751479_a_at) / Fold change /veh CCDC152 (11751479_a_at) / RFU FAM211A (11726209_a_at) / Fold change /veh FAM211A (11726209_a_at) / RFU RGS16 (11746705_a_at) / Fold change /veh RGS16 (11746705_a_at) / RFU VCAN (11755009_s_at) / Fold change /veh VCAN (11755009_s_at) / RFU RHOB (11743442_s_at) / Fold change /veh RHOB (11743442_s_at) / RFU RGS16 (11720943_a_at) / Fold change /veh RGS16 (11720943_a_at) / RFU RGS16 (11720944_at) / Fold change /veh RGS16 (11720944_at) / RFU, VPS4B / Fold change vs veh, VPS4B / RFU, CREB1 / Fold change vs veh, CREB1 / RFU, DNAJC13 / Fold change vs veh, DNAJC13 / RFU, GNAQ / Fold change vs veh, GNAQ / RFU, CDK5R1 / Fold change vs veh, CDK5R1 / RFU, ZRANB3 / Fold change vs veh, ZRANB3 / RFU, CUL4A / Fold change vs veh, CUL4A / RFU, CCNY / Fold change vs veh, CCNY / RFU, UFL1 / Fold change vs veh, UFL1 / RFU, COG3 / Fold change vs veh, COG3 / RFU, DIAPH2 / Fold change vs veh, DIAPH2 / RFU, SKA2 / Fold change vs veh, SKA2 / RFU, AFF3 / Fold change vs veh, AFF3 / RFU, LMF1 / Fold change vs veh, LMF1 / RFU, IPO11 / Fold change vs veh, IPO11 / RFU, DFFB / Fold change vs veh, DFFB / RFU, FOXP1 / Fold change vs veh, FOXP1 / RFU, CARD8 / Fold change vs veh, CARD8 / RFU, STRN3 / Fold change vs veh, STRN3 / RFU, ADK / Fold change vs veh, ADK / RFU, RASSF2 / Fold change vs veh, RASSF2 / RFU, WIPF1 / Fold change vs veh, WIPF1 / RFU, LARP1B / Fold change vs veh, LARP1B / RFU, RASA1 / Fold change vs veh, RASA1 / RFU, RB1 / Fold change vs veh, RB1 / RFU, PPFIA1 / Fold change vs veh, PPFIA1 / RFU, MAT2A / Fold change vs veh, MAT2A / RFU, CCT5 / Fold change vs veh, CCT5 / RFU, WDR92 / Fold change vs veh, WDR92 / RFU, CUX1 / Fold change vs veh, CUX1 / RFU, TTC7A / Fold change vs veh, TTC7A / RFU, TMEM135 / Fold change vs veh, TMEM135 / RFU, DEPTOR / Fold change vs veh, DEPTOR / RFU, CPM / Fold change vs veh, CPM / RFU, DNAJB6 / Fold change vs veh, DNAJB6 / RFU, CACNA2D3 / Fold change vs veh, CACNA2D3 / RFU, DTX4 / Fold change vs veh, DTX4 / RFU, TFCP2 / Fold change vs veh, TFCP2 / RFU, GMCL1 /// GMCL1P1 / Fold change vs veh, GMCL1 /// GMCL1P1 / RFU, AEBP2 / Fold change vs veh, AEBP2 / RFU, SNHG1 /// SNORD22 /// SNORD25 /// SNORD26 /// SNORD27 /// SNORD28 /// SNORD29 /// SNORD31 / Fold change vs veh, SNHG1 /// SNORD22 /// SNORD25 /// SNORD26 /// SNORD27 /// SNORD28 /// SNORD29 /// SNORD31 / Fold change (Aza/veh), C12orf56 (ProbeSet 11735607_a_at) / Fold change (ACY-1035/veh), C12orf56 (ProbeSet 11735607_a_at) / Fold change (Aza/veh), FGFR1OP (ProbeSet 11751329_s_at) / Fold change (ACY-1035/veh), FGFR1OP (ProbeSet 11751329_s_at) / Fold change (Aza/veh), VPS36 (ProbeSet 11739960_a_at) / Fold change (ACY-1035/veh), VPS36 (ProbeSet 11739960_a_at) / RFU SYPL1 (11715823_x_at) / Fold change /veh SYPL1 (11715823_x_at) / RFU IGFBP7 (11715501_s_at) / Fold change /veh IGFBP7 (11715501_s_at) / RFU REEP3 (11722064_at) / Fold change /veh REEP3 (11722064_at) / RFU IGLL1 (11728026_x_at) / Fold change /veh IGLL1 (11728026_x_at): dose or concentration left out as unconfirmed
Details: ProbeSet 11732306_x_at; LIST D

Which “RFU, CREB1” value does the source give for `Nc1ncn([C@@H]2O[C@H](CO)[C@@H](O)[C@H]2O)c(=O)n1` [azacitidine] here?
Its value is 273.21 RFU.
